Data set [1] in a line: In vitro liver microsomal stability assay, human. It counts as in vitro ADME. As to conditions: for CLint scaled at 1 µM / half-life at 1 µM / microsomal CLint at 1 µM / T1/2: Human liver microsomes; for Remaining amount % at 60 min: Human liver microsomes 0.5 mg/mL, NADPH; for microsomal CLint at 1 µM: read-out: CLint(mic). How it is done:
(§1) 1) Preparation of working solutions of test samples: The test samples were diluted with acetonitrile to 100 M.
(§2) 2) Preparation of a working solution of liver microsomes: liver microsomes were diluted with 100 mM phosphate-buffered saline to 0.56 mg/mL.
(§3) 3) Preparation of a working solution of reduced nicotinamide adenine dinucleotide (NADPH): A proper amount of NADPH was weighed out and diluted with phosphate-buffered saline to 20 mM, and an equal volume of a 60 mM MgCl2 solution was added.
(§4) 4) Preparation of a stop solution: Tolbutamide was diluted with acetonitrile to 20 ng/mL, serving as a stop solution containing an internal standard.
(§5) 1) Incubation anti-adsorption EP tubes were prepared and labeled with species, test/control sample, time points (0, 5, 10, 20, 30, 60 min, Blank60, and NCF60), etc.
(§6) 2) 2 L of test or control sample working solution, diluted with acetonitrile to 100 M, and 178 L of liver microsome working solution were added to each tube. For the Blank60 tube, 2 L of acetonitrile was added instead of a test sample. The tubes were pre-incubated in a 37° C. water bath for about 10 min, with each sample tested in triplicate.
(§7) 3) After the pre-incubation was complete, 20 L of NADPH working solution was added to each tube except for the 0 min and NCF60 tubes to start reactions, and 20 L of phosphate-buffered saline (containing 30 mM MgCl2) was added to the NCF60 tube. In the incubation system, the final concentrations of the test and control samples were 1 M, the final concentration of liver microsomes was 0.5 mg/mL, the final concentration of NADPH was 1 mM, and the final concentration of MgCl2 was 3 mM.
(§8) 4) For the 0 min sample, 600 L of stop solution was added before adding the NADPH working solution. After each sample was incubated for its respective time, 600 L of stop solution was added to stop the reaction.
(§9) 5) After the reaction was stopped, each sample was vortexed for 30 s and then centrifuged at 13,500 rpm for 10 min. 100 L of the supernatant was transferred to an EP tube, and 100 L Milli-Q water was added. The mixture was well mixed by vortexing and analyzed by LC-MS/MS.
(§10) 6) Testosterone and dextromethorphan were used as positive control samples under the same conditions to assess the stability and reliability of the system.
(§11) Parameters of the test samples, including their half-lives, intrinsic clearance rates in liver microsomes, and hepatic intrinsic clearance rates, were calculated based on the percentage of test sample remaining.
For orientation: Liver microsomes are a subcellular fraction often used to study metabolism.

Data set [2] has as its target T1, α1β2γ2 GABA receptors (α1β2γ2-CHO-TRex stable cell strain) (Homo sapiens, UniProt P14867+P47870).
T1 construct: expressed in transfected cells
Briefly: Whole-cell patch clamp, intrasynaptic functional activity (positive allosteric regulation of GABA-induced current). It is filed as cell-based. Conditions: patch clamp -60 mV, GABA at EC10-20, α1β2γ2-CHO-TRex cells. The protocol:
(§12) The α4β3δ-HEK-FlpIn-TRex stable cell strain was cultured in DMEM+10% FBS complete culture medium, with the selective antibiotics being 10 μg/mL Blasticidin, 100 µg/mL Zeocin, 100 µg/mL Hygromycin, and 0.2 μg/mL Puromycin. The α1β2γ2-CHO-TRex stable cell strain was cultured in DMEM/F12+10% FBS complete culture medium, with the selective antibiotics being 10 μg/mL Blasticidin, 100 μg/mL Zeocin, 300 μg/mL Hygromycin, and […] Puromycin.
(§13) The day before the patch clamp experiment, cells were seeded onto 12 mm polylysine-coated coverslips and then cultured in 35 mm culture dishes, and tetracycline ([…]) was added to induce the expression of GABA receptors. The extracellular fluid had the following composition (in mM): 140 NaCl, 3 KCl, 1.5 MgCl2, 2 CaCl2, 10 HEPES, and 10 Glucose. After thorough mixing, NaOH was added to adjust the pH to 7.4, and sucrose was added to adjust the osmotic pressure to 300-320 mOsm. The fluid was stored at 4° C. The electrode internal solution had the following composition (in mM): 145 KCl, 1 MgCl2, 5 EGTA, 10 HEPES, and 5 MgATP. After thorough mixing, KOH was added to adjust the pH to 7.3, and sucrose was added to adjust the osmotic pressure to 290-300 mOsm. The solution was filtered through a […] before use.
(§14) Whole-cell patch clamp recording was mainly employed in this experiment. The membrane potential was clamped at −60 mV, and receptors were activated using GABA at an EC10-20 concentration ([…]). The test compounds were dissolved in 0.1% DMSO, and perfusion was performed for 30 s prior to GABA stimulation. Finally, the positive allosteric regulating effects of the test compounds on α1β2γ2 or α4β3δ were determined.
(§15) The experimental result for each concentration was expressed as a fold increase in the GABA-induced current caused by the compound. […] At least 5 concentrations are tested to obtain a complete EC50 curve and EC50 values. All experiments were repeated on no less than 3 cells, and data processing was completed using GraphPad prism software. The dose-response curves were fitted using the Hill equation, and the half-maximal activating concentration EC50 and Emax were finally obtained.
In general terms: Patch clamp records ionic current or voltage across a cell membrane.

Data set [3] concerns the target T2, α4β3δ GABA receptors (α4β3δ-HEK-FlpIn-TRex stable cell strain) (Homo sapiens, UniProt P28472+P48169).
T2 construct: expressed in transfected cells
Briefly: Whole-cell patch clamp, extrasynaptic functional activity (positive allosteric regulation of GABA-induced current). It is filed as cell-based. Conditions: patch clamp -60 mV, GABA at EC10-20, α4β3δ-HEK-FlpIn-TRex cells. The protocol: as §12, §13, §14, §15

A short description of data set [4]: In vitro liver microsomal stability assay, rat. It is filed as in vitro ADME. Conditions: for CLint scaled at 1 µM / half-life at 1 µM / microsomal CLint at 1 µM / T1/2: Rat liver microsomes; for Remaining amount % at 60 min: Rat liver microsomes 0.5 mg/mL, NADPH; for microsomal CLint at 1 µM: read-out: CLint(mic). How it is done:
as §1, §2, §3, §4, §5, §6, §7, §8, §9, §10, §11

6 molecules from patent publication US20250368678A1, “19-NOR-C3,3-DISUBSTITUTED C21-AZACYCLO-S[…] AND METHOD FOR USING SAME” (SHANDONG LUYE PHARMACEUTICAL CO., LTD., priority 2022, published 2025) can be followed below.

As a reminder, the CLint scaled is the rate of metabolic loss divided by the concentration. High values mean faster metabolism, low ones greater metabolic stability. A word on the half-life: it is the time in which the quantity being followed falls by half. Read a low half-life as rapid decline. By EC50 is commonly meant the concentration at which the effect is half-maximal. A higher EC50 goes with lower potency in that assay. One may read the Emax as the size of the effect at its maximum, as opposed to the concentration needed.

T2 sequence (P48169 36-554): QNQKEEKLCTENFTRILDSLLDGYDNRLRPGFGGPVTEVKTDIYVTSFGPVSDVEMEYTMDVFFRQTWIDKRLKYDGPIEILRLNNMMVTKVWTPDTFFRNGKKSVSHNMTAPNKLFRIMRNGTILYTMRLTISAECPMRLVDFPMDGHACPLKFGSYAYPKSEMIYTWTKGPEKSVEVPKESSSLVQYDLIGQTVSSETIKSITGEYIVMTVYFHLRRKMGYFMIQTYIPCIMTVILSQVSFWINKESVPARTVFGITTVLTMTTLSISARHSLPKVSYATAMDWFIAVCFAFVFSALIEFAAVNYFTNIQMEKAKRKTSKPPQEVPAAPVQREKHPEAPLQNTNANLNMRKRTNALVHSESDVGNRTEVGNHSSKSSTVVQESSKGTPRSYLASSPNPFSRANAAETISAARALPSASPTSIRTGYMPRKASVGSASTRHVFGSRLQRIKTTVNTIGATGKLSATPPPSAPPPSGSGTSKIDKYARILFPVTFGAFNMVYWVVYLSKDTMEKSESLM
T2 sequence (P28472 26-473): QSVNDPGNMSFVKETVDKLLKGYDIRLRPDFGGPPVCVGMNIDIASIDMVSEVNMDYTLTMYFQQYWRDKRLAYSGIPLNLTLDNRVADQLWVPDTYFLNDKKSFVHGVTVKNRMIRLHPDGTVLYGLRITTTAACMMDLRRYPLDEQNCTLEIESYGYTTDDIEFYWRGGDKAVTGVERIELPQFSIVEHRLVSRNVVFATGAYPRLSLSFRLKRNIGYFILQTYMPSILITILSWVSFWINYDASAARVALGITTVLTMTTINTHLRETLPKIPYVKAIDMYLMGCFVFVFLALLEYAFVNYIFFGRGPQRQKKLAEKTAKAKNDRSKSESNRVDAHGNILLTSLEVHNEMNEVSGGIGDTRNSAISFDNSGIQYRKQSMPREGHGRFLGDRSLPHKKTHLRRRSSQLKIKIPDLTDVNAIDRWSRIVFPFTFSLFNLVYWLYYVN
T2 sequence (O14764 25-452 partner): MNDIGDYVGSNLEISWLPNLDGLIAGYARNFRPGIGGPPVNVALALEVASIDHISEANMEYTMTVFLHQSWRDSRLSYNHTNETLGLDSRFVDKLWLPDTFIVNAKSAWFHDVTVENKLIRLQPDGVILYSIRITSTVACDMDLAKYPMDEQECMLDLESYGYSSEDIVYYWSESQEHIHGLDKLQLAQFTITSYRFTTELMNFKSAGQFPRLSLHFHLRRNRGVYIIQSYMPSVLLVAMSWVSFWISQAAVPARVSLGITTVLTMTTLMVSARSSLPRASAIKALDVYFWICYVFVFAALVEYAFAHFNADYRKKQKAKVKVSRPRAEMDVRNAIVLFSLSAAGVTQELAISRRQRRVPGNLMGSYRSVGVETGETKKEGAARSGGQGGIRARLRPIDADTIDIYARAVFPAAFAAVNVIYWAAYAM
T1 sequence (P14867 28-456): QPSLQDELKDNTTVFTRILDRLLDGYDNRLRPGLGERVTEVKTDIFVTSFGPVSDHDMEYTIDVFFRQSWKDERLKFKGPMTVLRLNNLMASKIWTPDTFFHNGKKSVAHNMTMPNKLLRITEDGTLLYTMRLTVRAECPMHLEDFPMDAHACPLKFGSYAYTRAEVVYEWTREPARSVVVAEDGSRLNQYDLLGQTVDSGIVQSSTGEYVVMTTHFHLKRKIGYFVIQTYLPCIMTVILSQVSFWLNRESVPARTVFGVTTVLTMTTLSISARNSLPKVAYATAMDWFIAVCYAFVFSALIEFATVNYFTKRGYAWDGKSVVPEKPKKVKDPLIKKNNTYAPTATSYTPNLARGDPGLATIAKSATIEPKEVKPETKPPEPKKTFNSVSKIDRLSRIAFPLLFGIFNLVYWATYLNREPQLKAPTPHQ
T1 sequence (P47870 25-512 limits assumed): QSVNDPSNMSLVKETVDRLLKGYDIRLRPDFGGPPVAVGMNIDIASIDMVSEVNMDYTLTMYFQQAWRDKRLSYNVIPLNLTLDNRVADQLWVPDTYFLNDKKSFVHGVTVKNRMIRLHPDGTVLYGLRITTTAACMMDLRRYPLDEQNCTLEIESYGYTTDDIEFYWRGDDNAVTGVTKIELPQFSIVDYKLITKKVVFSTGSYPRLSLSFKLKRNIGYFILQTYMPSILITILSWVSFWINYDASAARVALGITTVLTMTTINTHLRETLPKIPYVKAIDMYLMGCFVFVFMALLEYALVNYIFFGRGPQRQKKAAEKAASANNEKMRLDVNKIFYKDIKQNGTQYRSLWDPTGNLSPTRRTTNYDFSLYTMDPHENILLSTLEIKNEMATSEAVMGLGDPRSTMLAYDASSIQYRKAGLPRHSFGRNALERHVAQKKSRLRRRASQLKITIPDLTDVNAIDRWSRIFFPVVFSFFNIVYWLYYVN
T1 sequence (P18507 40-475 partner): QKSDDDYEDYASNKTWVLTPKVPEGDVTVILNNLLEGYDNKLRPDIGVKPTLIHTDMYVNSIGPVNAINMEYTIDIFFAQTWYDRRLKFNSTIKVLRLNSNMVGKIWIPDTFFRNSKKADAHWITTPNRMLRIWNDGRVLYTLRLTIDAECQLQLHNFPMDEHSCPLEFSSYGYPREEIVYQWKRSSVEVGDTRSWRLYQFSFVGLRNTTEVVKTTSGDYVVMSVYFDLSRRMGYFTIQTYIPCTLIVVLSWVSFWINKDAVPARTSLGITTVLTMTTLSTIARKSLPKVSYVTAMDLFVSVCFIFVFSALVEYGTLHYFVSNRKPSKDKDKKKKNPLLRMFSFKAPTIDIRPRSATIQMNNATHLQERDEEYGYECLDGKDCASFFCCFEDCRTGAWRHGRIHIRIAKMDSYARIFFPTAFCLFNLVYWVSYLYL

In the case of `C[C@@]1(O)CC[C@H]2[C@H](CC[C@@H]3[C@@H]2CC[C@]2(C)[C@@H](C(=O)Cn4cnn(-c5ccnc(OC(F)(F)F)c5)c4=O)CC[C@@H]32)C1` [Compound 38], in data set [1], the CLint scaled at 1 µM is less than 6.75 mL/min/kg, the half-life at 1 µM is more than 3.1 h, the “Remaining amount % at 60 min” value was found to be 97.3% and the microsomal CLint at 1 µM was less than 7.5 µL/min/mg. In data set [2], the EC50 came to 55 nM and the Emax was 700%. In data set [3], this molecule yielded an EC50 of 115 nM and an Emax of 625%. Further, in data set [4], the CLint scaled at 1 µM came out at 12 mL/min/kg, the half-life at 1 µM is 3.5 h, the “Remaining amount % at 60 min” value is on record as 82.9% and the microsomal CLint at 1 µM stood at 7 µL/min/mg.

As to `C[C@@]1(O)CC[C@H]2[C@H](CC[C@@H]3[C@@H]2CC[C@]2(C)[C@@H](C(=O)Cn4cnn(-c5cccc(C#N)c5)c4=O)CC[C@@H]32)C1` [Compound 34], in data set [1], the CLint scaled at 1 µM was found to be 7 mL/min/kg, the half-life at 1 µM worked out at 2.96 h, the “Remaining amount % at 60 min” value was 79.9% and the microsomal CLint at 1 µM is 8 µL/min/mg. The molecule further returned an EC50 in data set [2] of 112 nM. In data set [3], this molecule registered an EC50 of 50 nM and an Emax of 683%. Further, in data set [4], the CLint scaled at 1 µM is 98 mL/min/kg, the half-life at 1 µM stood at 0.427 h, the “Remaining amount % at 60 min” value stood at 20.5% and the microsomal CLint at 1 µM worked out at 54 µL/min/mg.

As for `COc1ccc(-n2ncn(CC(=O)[C@H]3CC[C@H]4[C@@H]5CC[C@@H]6C[C@](C)(O)CC[C@@H]6[C@H]5CC[C@]34C)c2=O)cn1` [Compound 17], in data set [1], the CLint scaled at 1 µM was determined as 17 mL/min/kg, the T1/2 was 1.22 h, the “Remaining amount % at 60 min” value was 57.7% and the microsomal CLint at 1 µM stood at 19 µL/min/mg. In addition, the Emax in data set [2] came out at 389%. The same molecule came in with an Emax in data set [3] of 474%. In data set [4], the CLint scaled at 1 µM came out at 161 mL/min/kg, the T1/2 worked out at 0.258 h, the “Remaining amount % at 60 min” value is given as 6.6% and the microsomal CLint at 1 µM was found to be 90 µL/min/mg.

`C[C@@]1(O)CC[C@H]2[C@H](CC[C@@H]3[C@@H]2CC[C@]2(C)[C@@H](C(=O)Cn4cnn(-c5cc(Cl)ccn5)c4=O)CC[C@@H]32)C1` [Compound 26]: in data set [1], the CLint scaled at 1 µM stood at 18 mL/min/kg, the T1/2 turned out to be 1.14 h, the “Remaining amount % at 60 min” value is on record as 53.7% and the microsomal CLint at 1 µM is 20 µL/min/mg. Besides, the Emax in data set [2] amounted to 624%. This molecule also gave an Emax in data set [3] of 589%. Besides, in data set [4], the CLint scaled at 1 µM is 120 mL/min/kg, the T1/2 was 0.347 h, the “Remaining amount % at 60 min” value is recorded as 12.7% and the microsomal CLint at 1 µM came to 67 µL/min/mg.

With `C[C@@]1(O)CC[C@H]2[C@H](CC[C@@H]3[C@@H]2CC[C@]2(C)[C@@H](C(=O)Cn4cnn(-c5ccnc(OCC(F)(F)F)c5)c4=O)CC[C@@H]32)C1` [Compound 39], in data set [1], the CLint scaled at 1 µM came to 8 mL/min/kg, the T1/2 was determined as 2.57 h, the “Remaining amount % at 60 min” value is given as 76.2% and the microsomal CLint at 1 µM was determined as 9 µL/min/mg. Moreover, the Emax in data set [2] came to 675%. The Emax in data set [3] is 967%. In data set [4], the CLint scaled at 1 µM is less than 13.5 mL/min/kg, the half-life at 1 µM was more than 3.1 h, the “Remaining amount % at 60 min” value was found to be 90.6% and the microsomal CLint at 1 µM is less than 7.5 µL/min/mg.

Take `C[C@@]1(O)CC[C@H]2[C@H](CC[C@@H]3[C@@H]2CC[C@]2(C)[C@@H](C(=O)Cn4cnn(-c5ccnc(F)c5)c4=O)CC[C@@H]32)C1` [Compound 21]: in data set [1], the CLint scaled at 1 µM worked out at 23 mL/min/kg, the half-life at 1 µM is 0.888 h, the “Remaining amount % at 60 min” value was 47.9% and the microsomal CLint at 1 µM came out at 26 µL/min/mg. It took 153 nM to reach a half-maximal effect in data set [2] (EC50). In data set [3], this molecule yielded an EC50 of 116 nM. In data set [4], the CLint scaled at 1 µM was determined as 69 mL/min/kg, the half-life at 1 µM is 0.605 h, the “Remaining amount % at 60 min” value is 31.9% and the microsomal CLint at 1 µM is 38 µL/min/mg.
